System: MV-4-11 cells
Test: Gene expression microarray analysis (Affymetrix PrimeView) and GSEA
Format: cell-based, human
Design: RFU PODN (11730768_x_at) / Fold change /veh PODN (11730768_x_at) / RFU LINC00158 (11744669_a_at) / Fold change /veh LINC00158 (11744669_a_at) / RFU DUSP10 (11751237_a_at) / Fold change /veh DUSP10 (11751237_a_at) / RFU ID3 (11757404_x_at) / Fold change /veh ID3 (11757404_x_at) / RFU PLEKHG5 (11737974_s_at) / Fold change /veh PLEKHG5 (11737974_s_at) / RFU LRRC4B (11730491_at) / Fold change /veh LRRC4B (11730491_at) / RFU GIMAP4 (11747438_a_at) / Fold change /veh GIMAP4 (11747438_a_at) / RFU KRT8 (11758183_x_at) / Fold change /veh KRT8 (11758183_x_at) / RFU CNN1 (11734310_a_at) / Fold change /veh CNN1 (11734310_a_at) / RFU VPS37D (11726825_at) / Fold change /veh VPS37D (11726825_at) / RFU C10orf10 (11716522_x_at) / Fold change /veh C10orf10 (11716522_x_at) / RFU KIR2DL2 /// KIR2DL4 /// KIR2DL5A /// KIR2DL5B /// KIR2DS1 /// KIR2DS2 /// KIR2DS3 /// KIR2DS4 /// KIR3DL3 /// KIR3DL3 /// KIR3DS1 (11738374_at) / Fold change /veh KIR2DL2 /// KIR2DL4 /// KIR2DL5A /// KIR2DL5B /// KIR2DS1 /// KIR2DS2 /// KIR2DS3 /// KIR2DS4 /// KIR3DL3 /// KIR3DL3 /// KIR3DS1 (11738374_at) / RFU C1QL1 (11718748_at) / Fold change /veh C1QL1 (11718748_at) / RFU TMPRSS4 (11747572_a_at) / Fold change /veh TMPRSS4 (11747572_a_at) / RFU HAMP (11756126_x_at) / Fold change /veh HAMP (11756126_x_at) / RFU RNFT2 (11725882_a_at) / Fold change /veh RNFT2 (11725882_a_at) / RFU NR4A2 (11747474_a_at) / Fold change /veh NR4A2 (11747474_a_at) / RFU ABCC12 (11746883_a_at) / Fold change /veh ABCC12 (11746883_a_at) / RFU TMEM136 (11760407_x_at) / Fold change /veh TMEM136 (11760407_x_at) / RFU CLDN22 /// WWC2 (11732394_at) / Fold change /veh CLDN22 /// WWC2 (11732394_at) / RFU HLA-DPB1 (11760878_x_at) / Fold change /veh HLA-DPB1 (11760878_x_at) / RFU SPINT1 (11716480_a_at) / Fold change /veh SPINT1 (11716480_a_at) / RFU GAP43 (11754022_s_at) / Fold change /veh GAP43 (11754022_s_at) / RFU A4GNT (11735810_at) / Fold change /veh A4GNT (11735810_at) / RFU PRB3 (11715151_x_at) / Fold change /veh PRB3 (11715151_x_at) / RFU TUBB4B (11761932_at) / Fold change /veh TUBB4B (11761932_at) / RFU CAPN14 (11732068_a_at) / Fold change /veh CAPN14 (11732068_a_at) / RFU TMCC2 (11721928_a_at) / Fold change /veh TMCC2 (11721928_a_at) / RFU IRGQ (11745062_a_at) / Fold change /veh IRGQ (11745062_a_at) / RFU FAM174B (11720279_a_at) / Fold change /veh FAM174B (11720279_a_at) / RFU TMPRSS4 (11748680_a_at) / Fold change /veh TMPRSS4 (11748680_a_at) / RFU FAM212B (11763350_a_at) / Fold change /veh FAM212B (11763350_a_at) / RFU PLEKHG5 (11743358_a_at) / Fold change /veh PLEKHG5 (11743358_a_at) / RFU ZSCAN30 (11745921_a_at) / Fold change /veh ZSCAN30 (11745921_a_at) / RFU CMKLR1 (11741424_a_at) / Fold change /veh CMKLR1 (11741424_a_at) / RFU LOC101060620 /// MAPK8IP1 (11723275_at) / Fold change /veh LOC101060620 /// MAPK8IP1 (11723275_at) / RFU SPTSSB (11747773_x_at) / Fold change /veh SPTSSB (11747773_x_at) / RFU PRSS12 (11739890_at) / Fold change /veh PRSS12 (11739890_at) / RFU BIN1 (11741810_x_at) / Fold change /veh BIN1 (11741810_x_at) / RFU WNT11 (11732464_a_at) / Fold change /veh WNT11 (11732464_a_at) / RFU C10orf10 (11716521_a_at) / Fold change /veh C10orf10 (11716521_a_at) / RFU C5orf56 (11738089_at) / Fold change /veh C5orf56 (11738089_at) / RFU CYB561 (11721691_x_at) / Fold change /veh CYB561 (11721691_x_at) / RFU ANKRD19P (11752326_a_at) / Fold change /veh ANKRD19P (11752326_a_at) / RFU OR2T12 /// OR2T33 /// OR2T8 (11738714_s_at) / Fold change /veh OR2T12 /// OR2T33 /// OR2T8 (11738714_s_at) / RFU VCAN (11748164_a_at) / Fold change /veh VCAN (11748164_a_at) / RFU JSRP1 (11732532_at) / Fold change /veh JSRP1 (11732532_at) / RFU KRTAP10-11 (11738290_x_at) / Fold change /veh KRTAP10-11 (11738290_x_at) / RFU MYO3A (11730013_a_at) / Fold change /veh MYO3A (11730013_a_at) / RFU EBF3 (11725865_a_at) / Fold change /veh EBF3 (11725865_a_at) / RFU CAMK2N1 (11719241_x_at) / Fold change /veh CAMK2N1 (11719241_x_at) / RFU C5orf56 (11738088_a_at) / Fold change /veh C5orf56 (11738088_a_at) / RFU OLFML3 (11715873_a_at) / Fold change /veh OLFML3 (11715873_a_at) / RFU LOC100653217 /// NTM (11731650_a_at) / Fold change /veh LOC100653217 /// NTM (11731650_a_at) / RFU MAPK11 (11762145_a_at) / Fold change /veh MAPK11 (11762145_a_at) / RFU FIZ1 (11724087_x_at) / Fold change /veh FIZ1 (11724087_x_at) / RFU OASL (11726364_x_at) / Fold change /veh OASL (11726364_x_at) / RFU SOX15 (11748057_x_at) / Fold change /veh SOX15 (11748057_x_at) / RFU CD79A (11719716_a_at) / Fold change /veh CD79A (11719716_a_at) / RFU HIST1H1D (11736915_at) / Fold change /veh HIST1H1D (11736915_at) / RFU CASKIN2 (11723855_a_at) / Fold change /veh CASKIN2 (11723855_a_at) / RFU LOC730098 (11760151_x_at) / Fold change /veh LOC730098 (11760151_x_at) / RFU OR4N2 (11742367_at) / Fold change /veh OR4N2 (11742367_at) / RFU PRRT2 (11749266_a_at) / Fold change /veh PRRT2 (11749266_a_at) / RFU SNX32 (11753110_a_at) / Fold change /veh SNX32 (11753110_a_at) / RFU CDHR5 (11726645_a_at) / Fold change /veh CDHR5 (11726645_a_at) / RFU RCAN1 (11760418_a_at) / Fold change /veh RCAN1 (11760418_a_at) / RFU FAM167A (11723789_a_at) / Fold change /veh FAM167A (11723789_a_at) / RFU FAM26E (11764081_at) / Fold change /veh FAM26E (11764081_at) / RFU ISYNA1 (11749810_s_at) / Fold change /veh ISYNA1 (11749810_s_at) / RFU ACY1 (11761880_at) / Fold change /veh ACY1 (11761880_at) / RFU 11764098_at / Fold change /veh 11764098_at / RFU SAMD14 (11745864_x_at) / Fold change /veh SAMD14 (11745864_x_at) / RFU NPB (11741838_a_at) / Fold change /veh NPB (11741838_a_at) / RFU TMPRSS6 (11731388_a_at) / Fold change /veh TMPRSS6 (11731388_a_at) / RFU KRTAP10-2 (11738614_at) / Fold change /veh KRTAP10-2 (11738614_at) / RFU ARHGAP8 /// PRR5-ARHGAP8 (11727945_x_at) / Fold change /veh ARHGAP8 /// PRR5-ARHGAP8 (11727945_x_at) / RFU KRTAP5-7 /// NADSYN1 (11734609_at) / Fold change /veh KRTAP5-7 /// NADSYN1 (11734609_at) / RFU RASL12 (11751679_a_at) / Fold change /veh RASL12 (11751679_a_at) / RFU CDKN2B (11736163_a_at) / Fold change /veh CDKN2B (11736163_a_at) / RFU PRF1 (11729649_at) / Fold change /veh PRF1 (11729649_at) / RFU, ZNF638 /// ZNF638-IT1 / Fold change vs veh, ZNF638 /// ZNF638-IT1 / RFU, PANK3 / Fold change vs veh, PANK3 / RFU, SH3YL1 / Fold change vs veh, SH3YL1 / RFU, ZEB2 / Fold change vs veh, ZEB2 / RFU, NRIP1 / Fold change vs veh, NRIP1 / RFU, PTTG1IP / Fold change vs veh, PTTG1IP / RFU, CAPN2 / Fold change vs veh, CAPN2 / RFU, MED14 / Fold change vs veh, MED14 / RFU, SNORA58 / Fold change vs veh, SNORA58 / RFU, C1orf63 / Fold change vs veh, C1orf63 / RFU, LRRFIP1 / Fold change vs veh, LRRFIP1 / RFU, NDUFAF7 / Fold change vs veh, NDUFAF7 / RFU, SLC12A2 / Fold change vs veh, SLC12A2 / RFU, IBTK / Fold change vs veh, IBTK / RFU, ESF1 / Fold change vs veh, ESF1 / Fold change vs veh, TMEM50B / RFU, TAOK1 / Fold change vs veh, TAOK1 / RFU, ACBD3 / Fold change vs veh, ACBD3 / RFU, TMA16 / Fold change vs veh, TMA16 / RFU, RWDD3 / Fold change vs veh, RWDD3 / RFU, BCAT1 / Fold change vs veh, BCAT1 / RFU, EDEM3 / Fold change vs veh, EDEM3 / RFU, TMEM33 / Fold change vs veh, TMEM33 / RFU, WDR75 / Fold change vs veh, WDR75 / RFU, AHCTF1 / Fold change vs veh, AHCTF1 / RFU, TFRC / Fold change vs veh, TFRC / RFU, ZDHHC17 / Fold change vs veh, ZDHHC17 / RFU, NOM1 / Fold change vs veh, NOM1 / RFU, ARL8B / Fold change vs veh, ARL8B / RFU, ZBTB11 / Fold change vs veh, ZBTB11 / RFU, TAMM41 / Fold change vs veh, TAMM41 / RFU, KIAA1704 /// LOC100996395 / Fold change vs veh, KIAA1704 /// LOC100996395 / RFU, ING1 / Fold change vs veh, ING1 / RFU, TRMT61B / Fold change vs veh, TRMT61B / RFU, FUBP3 / Fold change vs veh, FUBP3 / RFU, TP53 / Fold change vs veh, TP53 / RFU, TNKS2 / Fold change vs veh, TNKS2 / RFU, ZFP14 / Fold change vs veh, ZFP14 / RFU, ACTR2 / Fold change vs veh, ACTR2 / RFU, PPP3R1 / Fold change vs veh, PPP3R1 / RFU, PIK3R1 / Fold change vs veh, PIK3R1 / RFU, HNRNPA1 / Fold change vs veh, HNRNPA1 / RFU, RNF170 / Fold change vs veh, RNF170 / RFU, ZNF28 / Fold change vs veh, ZNF28 / RFU, RNGTT / Fold change vs veh, RNGTT / RFU, OGT / Fold change vs veh, OGT / RFU, BRD1 / Fold change vs veh, BRD1 / RFU, MARS / Fold change vs veh, MARS / RFU, ZNF655 / Fold change vs veh, ZNF655 / RFU, FAHD1 / Fold change vs veh, FAHD1 / RFU, BDP1 / Fold change vs veh, BDP1 / RFU, LRRCC1 / Fold change vs veh, LRRCC1 / RFU, ARID1A / Fold change vs veh, ARID1A / RFU, ZNF146 / Fold change vs veh, ZNF146 / RFU, ZNF330 / Fold change vs veh, ZNF330 / RFU, GPN3 / Fold change vs veh, GPN3 / RFU, C9orf123 / Fold change vs veh, C9orf123 / RFU, N4BP2L2 / Fold change vs veh, N4BP2L2 / RFU, ARFIP1 / Fold change vs veh, ARFIP1 / RFU, FAM179B / Fold change vs veh, FAM179B / RFU, BCL10 / Fold change vs veh, BCL10 / RFU, UHRF1BP1L / Fold change vs veh, UHRF1BP1L / RFU, BET1 / Fold change vs veh, BET1 / RFU, CNOT2 / Fold change vs veh, CNOT2 / RFU, ZNF268 / Fold change vs veh, ZNF268 / Fold change vs veh, ZNF507 / RFU, DGCR2 / Fold change vs veh, DGCR2 / RFU, WDSUB1 / Fold change vs veh, WDSUB1 / Fold change vs veh, HSP90B1 /// MIR3652 / RFU, ADSS / Fold change vs veh, ADSS / RFU, GK / Fold change vs veh, GK / RFU, ZNF148 / Fold change vs veh, ZNF148 / RFU, TAF9 / Fold change vs veh, TAF9 / RFU, SLC1A5 / Fold change vs veh, SLC1A5 / RFU, SLMO2 / Fold change vs veh, SLMO2 / RFU, ABCC4 / Fold change vs veh, ABCC4 / RFU, LOC101060439 /// RAP1B / Fold change vs veh, LOC101060439 /// RAP1B / RFU, RFX7 / Fold change vs veh, RFX7 / RFU, GTPBP10 / Fold change vs veh, GTPBP10 / RFU, CNEP1R1 / Fold change vs veh, CNEP1R1 / RFU, BIVM-ERCC5 /// ERCC5 / Fold change vs veh, BIVM-ERCC5 /// ERCC5 / RFU, ILF3 / Fold change vs veh, ILF3 / RFU 11762660_at / Fold change /veh 11762660_at / RFU VCAN (11757783_s_at) / Fold change /veh VCAN (11757783_s_at) / RFU DDX43 (11728927_at) / Fold change /veh DDX43 (11728927_at) / RFU KRT8 (11758188_x_at) / Fold change /veh KRT8 (11758188_x_at) / RFU NKD1 (11759106_at) / Fold change /veh NKD1 (11759106_at) / RFU SRD5A1 (11742802_a_at) / Fold change /veh SRD5A1 (11742802_a_at) / RFU TPSAB1 /// TPSB2 (11721975_s_at) / Fold change /veh TPSAB1 /// TPSB2 (11721975_s_at) / RFU GSTM3 (11746129_a_at) / Fold change /veh GSTM3 (11746129_a_at) / RFU IL23R (11737362_x_at) / Fold change /veh IL23R (11737362_x_at) / RFU TMEM51 (11727254_a_at) / Fold change /veh TMEM51 (11727254_a_at) / RFU PIWIL2 (11732686_x_at) / Fold change /veh PIWIL2 (11732686_x_at) / RFU ORM1 (11744905_x_at) / Fold change /veh ORM1 (11744905_x_at) / RFU CCDC152 (11743942_at) / Fold change /veh CCDC152 (11743942_at) / RFU ECM1 (11717891_a_at) / Fold change /veh ECM1 (11717891_a_at) / RFU IL23R (11748794_a_at) / Fold change /veh IL23R (11748794_a_at) / RFU TNFAIP8L3 (11732012_x_at) / Fold change /veh TNFAIP8L3 (11732012_x_at) / RFU MBOAT4 (11741988_at) / Fold change /veh MBOAT4 (11741988_at) / RFU 11764193_at / Fold change /veh 11764193_at / RFU TMEM53 (11763286_at) / Fold change /veh TMEM53 (11763286_at) / RFU MAGEB2 (11727129_at) / Fold change /veh MAGEB2 (11727129_at) / RFU TMEM200A (11744735_a_at) / Fold change /veh TMEM200A (11744735_a_at) / RFU CCDC152 (11751479_a_at) / Fold change /veh CCDC152 (11751479_a_at) / RFU FAM211A (11726209_a_at) / Fold change /veh FAM211A (11726209_a_at) / RFU RGS16 (11746705_a_at) / Fold change /veh RGS16 (11746705_a_at) / RFU VCAN (11755009_s_at) / Fold change /veh VCAN (11755009_s_at) / RFU RHOB (11743442_s_at) / Fold change /veh RHOB (11743442_s_at) / RFU RGS16 (11720943_a_at) / Fold change /veh RGS16 (11720943_a_at) / RFU RGS16 (11720944_at) / Fold change /veh RGS16 (11720944_at) / RFU, VPS4B / Fold change vs veh, VPS4B / RFU, CREB1 / Fold change vs veh, CREB1 / RFU, DNAJC13 / Fold change vs veh, DNAJC13 / RFU, GNAQ / Fold change vs veh, GNAQ / RFU, CDK5R1 / Fold change vs veh, CDK5R1 / RFU, ZRANB3 / Fold change vs veh, ZRANB3 / RFU, CUL4A / Fold change vs veh, CUL4A / RFU, CCNY / Fold change vs veh, CCNY / RFU, UFL1 / Fold change vs veh, UFL1 / RFU, COG3 / Fold change vs veh, COG3 / RFU, DIAPH2 / Fold change vs veh, DIAPH2 / RFU, SKA2 / Fold change vs veh, SKA2 / RFU, AFF3 / Fold change vs veh, AFF3 / RFU, LMF1 / Fold change vs veh, LMF1 / RFU, IPO11 / Fold change vs veh, IPO11 / RFU, DFFB / Fold change vs veh, DFFB / RFU, FOXP1 / Fold change vs veh, FOXP1 / RFU, CARD8 / Fold change vs veh, CARD8 / RFU, STRN3 / Fold change vs veh, STRN3 / RFU, ADK / Fold change vs veh, ADK / RFU, RASSF2 / Fold change vs veh, RASSF2 / RFU, WIPF1 / Fold change vs veh, WIPF1 / RFU, LARP1B / Fold change vs veh, LARP1B / RFU, RASA1 / Fold change vs veh, RASA1 / RFU, RB1 / Fold change vs veh, RB1 / RFU, PPFIA1 / Fold change vs veh, PPFIA1 / RFU, MAT2A / Fold change vs veh, MAT2A / RFU, CCT5 / Fold change vs veh, CCT5 / RFU, WDR92 / Fold change vs veh, WDR92 / RFU, CUX1 / Fold change vs veh, CUX1 / RFU, TTC7A / Fold change vs veh, TTC7A / RFU, TMEM135 / Fold change vs veh, TMEM135 / RFU, DEPTOR / Fold change vs veh, DEPTOR / RFU, CPM / Fold change vs veh, CPM / RFU, DNAJB6 / Fold change vs veh, DNAJB6 / RFU, CACNA2D3 / Fold change vs veh, CACNA2D3 / RFU, DTX4 / Fold change vs veh, DTX4 / RFU, TFCP2 / Fold change vs veh, TFCP2 / RFU, GMCL1 /// GMCL1P1 / Fold change vs veh, GMCL1 /// GMCL1P1 / RFU, AEBP2 / Fold change vs veh, AEBP2 / RFU, SNHG1 /// SNORD22 /// SNORD25 /// SNORD26 /// SNORD27 /// SNORD28 /// SNORD29 /// SNORD31 / Fold change vs veh, SNHG1 /// SNORD22 /// SNORD25 /// SNORD26 /// SNORD27 /// SNORD28 /// SNORD29 /// SNORD31 / Fold change (Aza/veh), C12orf56 (ProbeSet 11735607_a_at) / Fold change (ACY-1035/veh), C12orf56 (ProbeSet 11735607_a_at) / Fold change (Aza/veh), FGFR1OP (ProbeSet 11751329_s_at) / Fold change (ACY-1035/veh), FGFR1OP (ProbeSet 11751329_s_at) / Fold change (Aza/veh), VPS36 (ProbeSet 11739960_a_at) / Fold change (ACY-1035/veh), VPS36 (ProbeSet 11739960_a_at) / RFU SYPL1 (11715823_x_at) / Fold change /veh SYPL1 (11715823_x_at) / RFU IGFBP7 (11715501_s_at) / Fold change /veh IGFBP7 (11715501_s_at) / RFU REEP3 (11722064_at) / Fold change /veh REEP3 (11722064_at) / RFU IGLL1 (11728026_x_at) / Fold change /veh IGLL1 (11728026_x_at): dose or concentration left out as unconfirmed
Settings: MV-4-11 cells, 48 hours

Nc1ccc(-c2cccs2)cc1NC(=O)c1ccc2c(c1)cc(C1CC1)n2CCN1CCOCC1 [ACY-1035]
Fold change /veh TNFAIP8L3 (11732012_x_at): 1.18
